Test results as given in US8716242B2, “β-hairpin peptidomimetics” (priority 2009, dated 2014).
Numbered stars: 1 amine (or outer) side, 2 acyl side, 3 side chain; on linkers, the order of the positions; unused ones are H or OH. Bridge positions count the residues as written; N and C are the ends. Square brackets hold non-standard residues; d marks the D form. Side chains are listed from the residue outwards. Peptide text beside a SMILES is read from it. * marks the point of attachment. γGlu = O=C(O)[C@H](CCC(=O)[*:2])N[*:1]; Palmitoyl = CCCCCCCCCCCCCCCC(=O)*; Lauroyl = CCCCCCCCCCCC(=O)*; Dab = NCC[C@H](N)C(=O)O

Key:
in vivo = experiment: in vivo; parameters: species or system male CD-1 mice; conditions: for AUC0-∞ dcor. / Cmax dcor.: mouse
Procedure: 2.7. Pharmacokinetic Study (PK)
Pharmacokinetic study after intravenous (i.v.) and subcutaneous (s.c.) administration was performed for the compounds of Ex. 17, Ex. 20, Ex. 25, Ex. 26, Ex. 28, and Ex. 29. […] The compounds of Ex. 17, Ex. 25, Ex. 26, Ex. 28, and Ex. 29 were administered i.v. and s.c. as a cassette whereas for the compound of Ex. 20a single i.v. and s.c. administration was accomplished.
30 grams (±20%) male CD-1 mice obtained from Janvier, France, were used in the study testing the cassette compounds. The vehicle, phosphate buffered saline containing 5% DMSO, was added to give a final concentration of 0.5 mg/mL of the compounds (i.v. route and s.c. route). The volume was 2 mL/kg i.v. and 10 mL/kg s.c. and the cassette compounds were injected to give a final intravenous dose of 1 mg/kg and an subcutaneous dose of 5 mg/kg. Approximately 500 μL of blood were removed from the opened heart at predetermined time intervals (5, 15, 30 min and 1, 2, 4, 8 and 12 hours for the i.v. study and 5, 15, 30 min and 1, 2, 4, 8, 12 and 24 hours for the s.c. study) and added to heparinized tubes. Plasma was removed from pelleted cells upon centrifugation and frozen at −80° C. prior to HPLC-MS analysis. For the compound of Ex. 20 30 grams (±20%) male CD-1 mice obtained from Charles River Laboratories Deutschland GmbH were used. The vehicle, phosphate buffered saline, was added to give a final concentration of 0.2 mg/mL of the compound (i.v. route) and 1 mg/mL (s.c. route). The volume was 5 mL/kg i.v. and s.c. and the compound was injected to give a final intravenous dose of 1 mg/kg and an subcutaneous dose of 5 mg/kg. Approximately 300-400 μL of blood was removed under light isoflurane anesthesia by cardiac puncture at predetermined time intervals (5, 15, 30 min and 1, 2, 3, 4, 6, 12 hours for the i.v. study and 15, min and 1, 2, 4, 6, 8, 12 and 24 hours for the s.c. study) and added to heparinized tubes. Plasma was removed from pelleted cells upon centrifugation and frozen at −80° C. prior to HPLC-MS analysis.
Preparation of the Plasma Calibration Samples
“Blank” mouse plasma from untreated animals was used. Aliquots of plasma of 0.2 mL each were spiked with 50 ng of propranolol (Internal Standard, IS), (sample preparation by solid phase extraction on OASIS® HLB cartridges [Waters]) and with known amounts of Ex. 20 in order to obtain 9 plasma calibration samples in the range 10-5000 nM. The OASIS® HLB cartridges were conditioned with 1 mL of methanol and then with 1 mL of 1% NH3 in water. Samples were then diluted with 700 μL of 1% NH3 in water and loaded. The plate was washed with 1 mL of methanol/1% NH3 in water 5/95 (v/v). Elution was performed using 1 mL of 0.1% TFA in methanol.
The plate containing eluates was introduced into the concentrator system and taken to dryness. The residues were dissolved in 100 μL of formic acid 0.1%/acetonitrile, 95/5 (v/v) and analysed in the HPLC/MS on a reverse phase analytical column (Jupiter C18, 50×2.0 mm, 5 μm, Phenomenex), using gradient elution (mobile phases A: 0.1% formic acid in water, B: acetonitrile; from 5% B to 100% B in 2 min.).
Preparation of Plasma Samples
Samples coming from animal treatments were pooled in order to obtain an appropriate volume for the extraction. If the total volume obtained was less than 0.2 mL the appropriate amount of “blank” mouse plasma was added in order to keep the matrix identical to the calibration curve. Samples were than spiked with IS and processed as described for the calibration curve.
Pharmacokinetic Evaluation
In order to perform PK analysis pooled plasma data (n=3 mice) was used. PK parameters were calculated by WinNonLin™ software version 5.2.1 (Pharsight—A Certara™ Company, Mountain View, Calif. 94041 USA) using non-compartmental analysis with a linear up/log down trapezoidal calculation method. For the terminal elimination phase at least 3 time points and a correlation coefficient greater than 0.85 was used. […]

[1] = Plasma stability in human plasma; assay type: in vitro ADME; conditions: human plasma, 37° C.; for remaining at 24 h, 10 μM: 1440 min, read-out: human pl. cpd left at 1440 min; for human pl. T1/2: up to 1440 min
Method in brief: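 Peptides (1 mM DMSO/H2O stock) were spiked into human or mouse plasma in triplicate and incubated at 37 °C, sampling from 0 to 1440 min. Samples were quenched in formic acid/acetonitrile and analysed by LC/MS MRM. Remaining percent of t=0 was calculated and T1/2 derived by trend fitting.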

Row | SMILES | bioavailability (in vivo; male, CD-1, mouse) [%] | AUC(0-inf) (in vivo; male, CD-1, mouse, iv, 1 mg/kg) [µg·h/mL] | Cmax (in vivo; male, CD-1, mouse, iv, 1 mg/kg) [µg/mL] | Tmax (in vivo; male, CD-1, mouse, iv, 1 mg/kg) [h] | half-life (in vivo; male, CD-1, mouse, iv, 1 mg/kg) [h] | level at 0.083 h (in vivo; male, CD-1, mouse, iv, 1 mg/kg) [µg/mL] | level at 0.25 h (in vivo; male, CD-1, mouse, iv, 1 mg/kg) [µg/mL] | level at 0.5 h (in vivo; male, CD-1, mouse, iv, 1 mg/kg) [µg/mL] | level at 1 h (in vivo; male, CD-1, mouse, iv, 1 mg/kg) [µg/mL] | level at 2 h (in vivo; male, CD-1, mouse, iv, 1 mg/kg) [µg/mL] | level at 4 h (in vivo; male, CD-1, mouse, iv, 1 mg/kg) [µg/mL] | level at 12 h (in vivo; male, CD-1, mouse, iv, 1 mg/kg) [µg/mL] | AUC(0-inf) (in vivo; male, CD-1, mouse, sc, 5 mg/kg) [µg·h/mL] | Cmax (in vivo; male, CD-1, mouse, sc, 5 mg/kg) [µg/mL] | Tmax (in vivo; male, CD-1, mouse, sc, 5 mg/kg) [h] | half-life (in vivo; male, CD-1, mouse, sc, 5 mg/kg) [h] | level at 0.5 h (in vivo; male, CD-1, mouse, sc, 5 mg/kg) [µg/mL] | level at 1 h (in vivo; male, CD-1, mouse, sc, 5 mg/kg) [µg/mL] | level at 2 h (in vivo; male, CD-1, mouse, sc, 5 mg/kg) [µg/mL] | level at 4 h (in vivo; male, CD-1, mouse, sc, 5 mg/kg) [µg/mL] | also measured
1 | CCCCCCCCCCCCCCCC(=O)NCCCC[C@@H]1NC(=O)[C@H](Cc2ccc(O)cc2)NC(=O)[C@@H]2CSSC[C@H](NC(=O)[C@H](Cc3ccc(O)cc3)NC(=O)[C@H](Cc3c[nH]cn3)NC(=O)[C@H](Cc3ccc(O)cc3)NC(=O)[C@@H]3CCCN3C(=O)[C@H]3CCCN3C(=O)[C@H](CCCCN)NC1=O)C(=O)N[C@@H](CO)C(=O)N[C@@H](C)C(=O)N1CCC[C@@H]1C(=O)N[C@@H](CCN)C(=O)N[C@@H](CCCNC(=N)N)C(=O)N[C@@H](Cc1ccc(O)cc1)C(=O)N2 [Ex. 20] (cyclo(YHYCSA[dP][Dab]RYCYK(Palmitoyl)K[dP]P); disulfide 4-11) | 139 | 5.5 | 2.21 | 0.5 | 2 | 0.777 | 1.52 | 2.21 | 1.38 | 0.992 | 0.486 | 0.013 | 38.2 | 3.04 | 12 | 2.9 | 0.07 | 0.342 | 0.868 | 1.7 | level at 3 h (in vivo; male, CD-1, mouse, iv, 1 mg/kg): 0.638 µg/mL; level at 6 h (in vivo; male, CD-1, mouse, iv, 1 mg/kg): 0.234 µg/mL; level at 6 h (in vivo; male, CD-1, mouse, sc, 5 mg/kg): 2.8 µg/mL; level at 8 h (in vivo; male, CD-1, mouse, sc, 5 mg/kg): 2.86 µg/mL; level at 12 h (in vivo; male, CD-1, mouse, sc, 5 mg/kg): 3.04 µg/mL; level at 24 h (in vivo; male, CD-1, mouse, sc, 5 mg/kg): 0.179 µg/mL; AUC0-∞ dcor. (in vivo; iv, 1 mg/kg): 5504.8 kg·ng·h/mg/mL; Cmax dcor. (in vivo; iv, 1 mg/kg): 2210.0 kg·ng/mg/mL; AUC0-∞ dcor. (in vivo; sc, 5 mg/kg): 7630.8 kg·ng·h/mg/mL; Cmax dcor. (in vivo; sc, 5 mg/kg): 608.7 kg·ng/mg/mL; remaining at 24 h, 10 μM [1]: 54%; human pl. T1/2 [1]: 24 h
2 | CCCCCCCCCCCC(=O)N[C@@H](CCC(=O)NCCCC[C@@H]1NC(=O)[C@H](Cc2ccc(O)cc2)NC(=O)[C@@H]2CSSC[C@H](NC(=O)[C@H](Cc3ccc(O)cc3)NC(=O)[C@H](Cc3c[nH]cn3)NC(=O)[C@H](Cc3ccc(O)cc3)NC(=O)[C@@H]3CCCN3C(=O)[C@H]3CCCN3C(=O)[C@H](CCCCN)NC1=O)C(=O)N[C@@H](CO)C(=O)N[C@@H](C)C(=O)N1CCC[C@@H]1C(=O)N[C@@H](CCN)C(=O)N[C@@H](CCCNC(=N)N)C(=O)N[C@@H](Cc1ccc(O)cc1)C(=O)N2)C(=O)O [Ex. 25] (cyclo(YHYCSA[dP][Dab]RYCYK([γGlu-Lauroyl])K[dP]P); disulfide 4-11) | 142 | 3.48 | 2.97 | 0.1 | 2.5 | 2.97 | 2.19 | 1.99 | 1.6 | 0.16 | 0.18 | 0.016 | 24.7 | 2.19 | 2 | 4.7 | 0.205 | 0.517 | 2.19 | 1.64 | level at 8 h (in vivo; male, CD-1, mouse, iv, 1 mg/kg): 0.018 µg/mL; level at 0.25 h (in vivo; male, CD-1, mouse, sc, 5 mg/kg): 0.044 µg/mL; level at 8 h (in vivo; male, CD-1, mouse, sc, 5 mg/kg): 1.89 µg/mL; level at 12 h (in vivo; male, CD-1, mouse, sc, 5 mg/kg): 1.21 µg/mL; level at 24 h (in vivo; male, CD-1, mouse, sc, 5 mg/kg): 0.108 µg/mL; AUC0-∞ dcor. (in vivo; iv, 1 mg/kg): 3480.0 kg·ng·h/mg/mL; Cmax dcor. (in vivo; iv, 1 mg/kg): 2970.0 kg·ng/mg/mL; AUC0-∞ dcor. (in vivo; sc, 5 mg/kg): 4944.7 kg·ng·h/mg/mL; Cmax dcor. (in vivo; sc, 5 mg/kg): 437.4 kg·ng/mg/mL; remaining at 24 h, 10 μM [1]: 78%; human pl. T1/2 [1]: 24 h
